Source: article PMC4510350 (PLoS Neglected Tropical Diseases, 2015)
pEC50: −log10 of the molar value. Converted amounts (≈) assume the structure as drawn. “Also recorded” adds a separate entry of the source. Where a SMILES comes first, the peptide text is derived from it. Where no end group is shown, it is not given here. [ ]: non-standard residue; d: D form.

How the values were obtained:
[1] = tested on: B. thailandensis biofilm; assay type: cell-based, Burkholderia thailandensis
[2] = tested on: B. thailandensis (E264); conditions: pH 7.4
[3] = tested on: B. thailandensis E264 pre-formed biofilm; assay type: cell-based, Burkholderia thailandensis; conditions: n = 8
[4] = tested on: B. pseudomallei; conditions: cited from earlier work
[5] = tested on: multiple Burkholderia species; conditions: cited from earlier work

Compound: CC(C)(O/N=C(\C(=O)N[C@@H]1C(=O)N2C(C(=O)[O-])=C(C[n+]3ccccc3)CS[C@H]12)c1csc(N)n1)C(=O)O [Ceftazidime]
- biofilm inhibition [1]: did not inhibit biofilm production; also recorded: did not show biofilm inhibition

Compound: CC(C)C[C@@H](NC(=O)[C@@H](CCCCN)NC(=O)[C@@H](CCCCN)NC(=O)[C@@H](Cc1ccccc1)NC(=O)[C@@H](Cc1ccccc1)NC(=O)[C@@H](CCCCN)NC(=O)[C@@H](CCCCN)NC(=O)[C@@H](C)NC(=O)[C@@H](CCCNC(=N)N)NC(=O)[C@H](N)CCCCN)C(=O)N[C@H](CCCCN)C(N)=O [D-ATRA-1A] (H-[dK][dR][dA][dK][dK][dF][dF][dK][dK][dL][dK]-NH2; N-terminus and C-terminus assumed)
- pEC50 ([2]; 3 h): 5.32
- EC50 (μg/ml) ([2]; 3 h): 6.86 µg/mL (≈ 4.83 µM)
- dispersion of pre-formed biofilm [3]: no biofilm dispersion activity
- biofilm inhibition [1]: did slightly, but only at the highest concentration of peptide tested (300 μg/ml); also recorded: Minimal biofilm inhibition

Compound: GLKLRFEFSKIKGEFLKTPEVRFRDIKLKDNRISVQR [Scrambled LL-37]
- biofilm inhibition [1]: did not inhibit biofilm; also recorded: did not show biofilm inhibition

Compound: HNP-3
- antimicrobial activity / whether an EC50 could be determined [2]: could not be calculated because the peptide was ineffective

Compound: HNP-4 (VCSCRLVFCRRTELRVGNCLIGGVSFTYCCTRV; ends and bridges not checked; cysteine pairing not given here; UniProt P12838 64-96, looked up)
- antimicrobial activity / whether an EC50 could be determined [2]: could not be calculated because the peptide was ineffective

Compound: KRAKKFFKKLK-NH2 [ATRA-1A]
- pEC50 ([2]; 3 h): 5.01

Compound: KRAKKFFKKPK [ATRA-2]
- dispersion of pre-formed biofilm [3]: no biofilm dispersion activity
- biofilm inhibition [1]: did not inhibit biofilm formation; also recorded: not biofilm inhibition

Compound: KRFKKFFKKLK [ATRA-1]
- pEC50 ([2]; 3 h): 5.16

Compound: RGRKSSRRKK [Peptide 4 of hBD-3]
- antimicrobial activity / whether an EC50 could be determined [2]: could not be calculated because the peptide was ineffective
- killing of B. thailandensis at highest concentration tested [2]: 65%

Compound: bactenecin
- antimicrobial activity against B. pseudomallei [4]: antimicrobial against B. pseudomallei

Compound: hBD-3 (GIINTLQKYYCRVRGGRCAVLSCLPKEEQIGKCSTRGRKCCRRKK; ends and bridges not checked; cysteine pairing not given here; UniProt P81534 23-67, looked up)
- LD50 against multiple Burkholderia species [5]: > 100 µg/mL
